Converted amounts (≈) assume the structure as drawn.
Legend:
Assay type in all cases: cell-based
[1] = test system: Streptococcus pyogenes Cook; assay: Antibacterial activity, agar-dilution MIC, organism No. 4; conditions: Streptococcus pyogenes; Organism No. 4, bouillon-agar; read-out: Minimum Inhibitory Concentration
Outline: (§1)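 Specimen is incorporated into bouillon-agar medium at graded levels and the organisms are tested on these plates. The lowest level preventing growth is taken as the MIC (μg/ml of medium).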

[2] = test system: Micrococcus luteus ATCC 9341; assay: Antibacterial activity, agar-dilution MIC, organism No. 25; conditions: Micrococcus luteus, ATCC9341; Organism No. 25, bouillon-agar; read-out: Minimum Inhibitory Concentration
Outline: as §1

[3] = test system: Enterobacter aerogenes ATCC 13048; assay: Antibacterial activity, agar-dilution MIC, organism No. 23; conditions: Klebsiella aerogenes, ATCC13048; Organism No. 23, bouillon-agar; read-out: Minimum Inhibitory Concentration
Outline: as §1

[4] = test system: Staphylococcus aureus MS 353; assay: Antibacterial activity, agar-dilution MIC, organism No. 3; conditions: Staphylococcus aureus, MS353; Organism No. 3, bouillon-agar; read-out: Minimum Inhibitory Concentration
Outline: as §1

[5] = test system: Streptococcus pyogenes IFO 3340; assay: Antibacterial activity, agar-dilution MIC, organism No. 26; conditions: Streptococcus pyogenes, IFO3340; Organism No. 26, bouillon-agar; read-out: Minimum Inhibitory Concentration
Outline: as §1

[6] = test system: Streptococcus faecium IFO 3826; assay: Antibacterial activity, agar-dilution MIC, organism No. 27; conditions: Enterococcus faecium, IFO3826; Organism No. 27, bouillon-agar; read-out: Minimum Inhibitory Concentration
Outline: as §1

[7] = test system: Klebsiella pneumoniae PCI-602; assay: Antibacterial activity, agar-dilution MIC, organism No. 7; conditions: Klebsiella pneumoniae, PCI602; Organism No. 7, bouillon-agar; read-out: Minimum Inhibitory Concentration
Outline: as §1

[8] = test system: Escherichia coli NIHJ-JC-2; assay: Antibacterial activity, agar-dilution MIC, organism No. 5; conditions: Escherichia coli, NIHJJC2; Organism No. 5, bouillon-agar; read-out: Minimum Inhibitory Concentration
Outline: as §1

[9] = test system: Enterobacter cloacae 963; assay: Antibacterial activity, agar-dilution MIC, organism No. 24; conditions: Enterobacter cloacae, 963; Organism No. 24, bouillon-agar; read-out: Minimum Inhibitory Concentration
Outline: as §1

[10] = test system: Salmonella typhimurium IID 971; assay: Antibacterial activity, agar-dilution MIC, organism No. 8; conditions: Salmonella enterica; Organism No. 8, bouillon-agar; read-out: Minimum Inhibitory Concentration
Outline: as §1

[11] = test system: Serratia marcescens IAM 1184; assay: Antibacterial activity, agar-dilution MIC, organism No. 13; conditions: Serratia marcescens, IAM1184; Organism No. 13, bouillon-agar; read-out: Minimum Inhibitory Concentration
Outline: as §1

[12] = test system: Candida albicans IAM 4905; assay: Antifungal activity, agar-dilution MIC, organism No. 29; conditions: Candida albicans, IAM4905; Organism No. 29, bouillon-agar; read-out: Minimum Inhibitory Concentration
Outline: as §1

[13] = test system: Proteus vulgaris HX-19; assay: Antibacterial activity, agar-dilution MIC, organism No. 21; conditions: Proteus vulgaris, HX19; Organism No. 21, bouillon-agar; read-out: Minimum Inhibitory Concentration
Outline: as §1

[14] = test system: Salmonella typhi 901; assay: Antibacterial activity, agar-dilution MIC, organism No. 9; conditions: Salmonella enterica, TYPHI, read-out: Minimum Inhibitory Concentration
Outline: as §1

[15] = test system: Escherichia coli K12 C600 IAM 1264; assay: Antibacterial activity, agar-dilution MIC, organism No. 6; conditions: Escherichia coli, IAM1264; Organism No. 6, bouillon-agar; read-out: Minimum Inhibitory Concentration
Outline: as §1

[16] = test system: Staphylococcus aureus Terajima; assay: Antibacterial activity, agar-dilution MIC, organism No. 2; conditions: Staphylococcus aureus; Organism No. 2, bouillon-agar; read-out: Minimum Inhibitory Concentration
Outline: as §1

[17] = test system: Proteus mirabilis IFO 3849; assay: Antibacterial activity, agar-dilution MIC, organism No. 19; conditions: Proteus mirabilis, IFO3849; Organism No. 19, bouillon-agar; read-out: Minimum Inhibitory Concentration
Outline: as §1

[18] = test system: Mycoplasma pneumoniae IID817; assay: Antimycoplasmal activity, MIC by phenol red colour change, organism No. 28; conditions: Mycoplasma, IID817; Organism No. 28, PPLO broth + 1% glucose, 37° C.; read-out: Minimum Inhibitory Concentration (MIC)
Experimental: Mycoplasma pneumoniae IID817 was used as the test microorganism in a culture medium prepared by adding 1% of glucose to "PPLO broth (manufactured by Difco Co.) liquid culture medium" at 37° C. with phenol red as an indicator, thereby culturing the test microorganism.

[19] = test system: Pseudomonas aeruginosa PAO 1; assay: Antibacterial activity, agar-dilution MIC, organism No. 17; conditions: Pseudomonas aeruginosa, PAO1; Organism No. 17, bouillon-agar; read-out: Minimum Inhibitory Concentration
Outline: as §1

[20] = test system: Salmonella shottmuelleri 8006; assay: Antibacterial activity, agar-dilution MIC, organism No. 11; conditions: Salmonella, 8006; Organism No. 11, bouillon-agar; read-out: Minimum Inhibitory Concentration
Outline: as §1

[21] = test system: Salmonella enteritidis G 14; assay: Antibacterial activity, agar-dilution MIC, organism No. 12; conditions: Salmonella enterica, ENTERITIDIS; Organism No. 12, bouillon-agar; read-out: Minimum Inhibitory Concentration
Outline: as §1

[22] = test system: Salmonella paratyphi-A 1015; assay: Antibacterial activity, agar-dilution MIC, organism No. 10; conditions: Salmonella enterica, PARATYPHI, read-out: Minimum Inhibitory Concentration
Outline: as §1

[23] = test system: Aspergillus niger IFO 6342; assay: Antifungal activity, agar-dilution MIC, organism No. 30; conditions: Aspergillus niger, IFO6342; Organism No. 30, bouillon-agar; read-out: Minimum Inhibitory Concentration
Outline: as §1

[24] = test system: Bacillus subtilis ATCC 6633; assay: Antibacterial activity, agar-dilution MIC, organism No. 14; conditions: Bacillus subtilis, ATCC6633; Organism No. 14, bouillon-agar; read-out: Minimum Inhibitory Concentration
Outline: as §1

[25] = test system: Staphylococcus aureus FDA 209PJc-1; assay: Antibacterial activity, agar-dilution MIC, organism No. 1; conditions: Staphylococcus aureus, FDA209PJC1; Organism No. 1, bouillon-agar; read-out: Minimum Inhibitory Concentration
Outline: as §1

[26] = test system: Pseudomonas aeruginosa IFO 3445; assay: Antibacterial activity, agar-dilution MIC, organism No. 15; conditions: Pseudomonas aeruginosa, IFO3445; Organism No. 15, bouillon-agar; read-out: Minimum Inhibitory Concentration
Outline: as §1

[27] = test system: Proteus morganii IFO 3848; assay: Antibacterial activity, agar-dilution MIC, organism No. 18; conditions: Morganella morganii, IFO3848; Organism No. 18, bouillon-agar; read-out: Minimum Inhibitory Concentration
Outline: as §1

[28] = test system: Proteus vulgaris OX-19; assay: Antibacterial activity, agar-dilution MIC, organism No. 20; conditions: Proteus vulgaris, OX19; Organism No. 20, bouillon-agar; read-out: Minimum Inhibitory Concentration
Outline: as §1

[29] = test system: Proteus rettgeri IFO 3850; assay: Antibacterial activity, agar-dilution MIC, organism No. 22; conditions: Providencia rettgeri, IFO3850; Organism No. 22, bouillon-agar; read-out: Minimum Inhibitory Concentration
Outline: as §1

[30] = test system: Pseudomonas aeruginosa NCTC 10490; assay: Antibacterial activity, agar-dilution MIC, organism No. 16; conditions: Pseudomonas aeruginosa, NCTC10490; Organism No. 16, bouillon-agar; read-out: Minimum Inhibitory Concentration
Outline: as §1

Compound `[C-]#[N+]C12CC3(/C=C/C(=O)Nc4ccc(S(N)(=O)=O)cc4)OC3C1O2` (stereo not drawn) [compound 63] has an MIC [1] greater than 200 µg/mL, an MIC [2] of 25 µg/mL (≈ 72 µM) and an MIC [3] greater than 200 µg/mL. For the same compound, the MIC [4] was 3.13 µg/mL (≈ 9.01 µM), the MIC [5] was 6.25 µg/mL (≈ 18 µM) and the MIC [6] was greater than 200 µg/mL. It also gave an MIC [7] of 3.13 µg/mL (≈ 9.01 µM), an MIC [8] greater than 200 µg/mL and an MIC [9] greater than 200 µg/mL. The MIC [10] was 100 µg/mL (≈ 288 µM), the MIC [11] was greater than 200 µg/mL and the MIC [12] was 100 µg/mL (≈ 288 µM). The MIC [13] was 1.56 µg/mL (≈ 4.49 µM), the MIC [14] was 50 µg/mL (≈ 144 µM) and the MIC [15] was greater than 200 µg/mL. It also gave an MIC [16] of 25 µg/mL (≈ 72 µM), an MIC [17] greater than 200 µg/mL and an MIC [18] of less than 0.2 µg/mL. For the same compound, the MIC [19] was greater than 200 µg/mL, the MIC [20] was 12.5 µg/mL (≈ 36 µM) and the MIC [21] was 25 µg/mL (≈ 72 µM). It also gave an MIC [22] of 12.5 µg/mL (≈ 36 µM), an MIC [23] of 100 µg/mL (≈ 288 µM) and an MIC [24] of 50 µg/mL (≈ 144 µM). The MIC [25] was 3.13 µg/mL (≈ 9.01 µM), the MIC [26] was greater than 200 µg/mL and the MIC [27] was 3.13 µg/mL (≈ 9.01 µM). It also gave an MIC [28] of 1.56 µg/mL (≈ 4.49 µM), an MIC [29] of 6.25 µg/mL (≈ 18 µM) and an MIC [30] greater than 200 µg/mL.

`[C-]#[N+]C12CC3(/C=C/C(=O)Nc4ccc5c(c4)OCO5)OC3C1O2` (stereo not drawn) [compound 64] showed an MIC [1] of 12.5 µg/mL (≈ 40 µM), an MIC [2] of 0.05 µg/mL (≈ 0.16 µM) and an MIC [3] greater than 200 µg/mL. The MIC [4] was 0.2 µg/mL (≈ 0.64 µM), the MIC [5] was 1.56 µg/mL (≈ 5 µM) and the MIC [6] was 12.5 µg/mL (≈ 40 µM). The MIC [7] was 0.2 µg/mL (≈ 0.64 µM), the MIC [8] was 25 µg/mL (≈ 80.1 µM) and the MIC [9] was greater than 200 µg/mL. The MIC [10] was 6.25 µg/mL (≈ 20 µM), the MIC [11] was 50 µg/mL (≈ 160 µM) and the MIC [12] was 0.39 µg/mL (≈ 1.25 µM). The MIC [13] was 0.05 µg/mL (≈ 0.16 µM), the MIC [14] was 3.13 µg/mL (≈ 10 µM) and the MIC [15] was 12.5 µg/mL (≈ 40 µM). The MIC [16] was 0.78 µg/mL (≈ 2.5 µM), the MIC [17] was greater than 200 µg/mL and the MIC [18] was less than 0.2 µg/mL. It also gave an MIC [19] greater than 200 µg/mL, an MIC [20] of 0.39 µg/mL (≈ 1.25 µM) and an MIC [21] of 3.13 µg/mL (≈ 10 µM). It also gave an MIC [22] of 0.39 µg/mL (≈ 1.25 µM), an MIC [23] of 6.25 µg/mL (≈ 20 µM) and an MIC [24] of 6.25 µg/mL (≈ 20 µM). The MIC [25] was 0.2 µg/mL (≈ 0.64 µM), the MIC [26] was greater than 200 µg/mL and the MIC [27] was 6.25 µg/mL (≈ 20 µM). For the same compound, the MIC [28] was 0.2 µg/mL (≈ 0.64 µM), the MIC [29] was 3.13 µg/mL (≈ 10 µM) and the MIC [30] was greater than 200 µg/mL.

Compound `[C-]#[N+]C12CC3(/C=C/C(=O)Nc4ccc5c(c4)CCC5)OC3C1O2` (stereo not drawn) [compound 75] has an MIC [1] greater than 200 µg/mL, an MIC [2] of 200 µg/mL (≈ 649 µM) and an MIC [3] greater than 200 µg/mL. It also gave an MIC [4] of 0.78 µg/mL (≈ 2.53 µM), an MIC [5] of 0.78 µg/mL (≈ 2.53 µM) and an MIC [6] of 1.56 µg/mL (≈ 5.06 µM). It also gave an MIC [7] of 0.78 µg/mL (≈ 2.53 µM), an MIC [8] greater than 200 µg/mL and an MIC [9] of 200 µg/mL (≈ 649 µM). The MIC [10] was greater than 200 µg/mL, the MIC [11] was greater than 200 µg/mL and the MIC [12] was 200 µg/mL (≈ 649 µM). It also gave an MIC [13] of 0.78 µg/mL (≈ 2.53 µM), an MIC [14] greater than 200 µg/mL and an MIC [15] greater than 200 µg/mL. It also gave an MIC [16] of 1.56 µg/mL (≈ 5.06 µM), an MIC [17] greater than 200 µg/mL and an MIC [18] of less than 0.2 µg/mL. For the same compound, the MIC [19] was greater than 200 µg/mL, the MIC [20] was 1.56 µg/mL (≈ 5.06 µM) and the MIC [21] was greater than 200 µg/mL. The MIC [22] was 0.78 µg/mL (≈ 2.53 µM), the MIC [23] was 200 µg/mL (≈ 649 µM) and the MIC [24] was 1.56 µg/mL (≈ 5.06 µM). It also gave an MIC [25] of 0.39 µg/mL (≈ 1.26 µM), an MIC [26] greater than 200 µg/mL and an MIC [27] of 3.13 µg/mL (≈ 10.2 µM). For the same compound, the MIC [28] was 1.56 µg/mL (≈ 5.06 µM), the MIC [29] was greater than 200 µg/mL and the MIC [30] was greater than 200 µg/mL.
